Test results taken from patent US20210346391A1, “TREATMENT OF PRURITUS WITH P2X3 MODULATORS” (Bellus Health Cough Inc., priority 2018, published 2021).

Assays:
[1] = tested on: chloroquine (CQ) induced itch behavior; experiment: Chloroquine-induced mouse model of acute itch and its potentiation by α,β-Me-ATP; format: in vivo
[2] = tested on: chronic itch behavior (spontaneous scratches); experiment: AEW (acetone-ether-water) dry skin model of chronic itch; format: in vivo, mouse; details: Day 10
[3] = tested on: chronic itch behavior (spontaneous scratches); experiment: MC903 atopic dermatitis model of chronic itch; format: in vivo, mouse; details: Day 8
Experimental: MC903 (calcipotriol, Tocris) was dissolved in 100% ethanol and topically applied on C57B16/J male mouse ears (4 nmol in 40 μl, 10 μl per side of ear) or nape (4 nmol in 40 μl). This regimen was administered twice daily for 7 days. Scratching behaviors were recorded 16 h after the last MC903 treatment. […] Mice were placed individually into behavior chambers and video recorded at a side angle for 60-90 minutes. A scratch was defined as a lifting of the hind limb towards the nape or head to scratch and then a replacing of the limb back to the floor, regardless of how many scratching strokes take place between lifting and lowering of the hind limb. Experimenters for injections and observers of scratching behavior were blinded to the injection compounds and groups of mice, respectively.

For `CCN(CC)CCCC(C)Nc1ccnc2cc(Cl)ccc12` (stereo not shown) [CQ, chloroquine, reference compound], the “number of scratches (mean ± s.e.m.)” value ([1]; mouse, in vivo) was 17.2±2.4 scratches.
In the case of `CNC(=O)c1cc(F)c(-c2nc3cc(C)ccn3c2C[C@H]2CN(C(=O)OC)CCO2)c(F)c1` [Compound 1], the “number of scratches in 15 minutes (mean ± s.e.m.)” value ([1]; 20 μg CQ + 50 μM α,β-Me-ATP, 10 mg/kg i.p., vehicle 46.6±2.9, p=0.0084) is reported as 28.3±4.6 scratches, the “decrease of the potentiation of CQ-induced itch by ATP” value ([1]; 20 μg CQ + 50 μM α,β-Me-ATP, 10 mg/kg i.p., vs vehicle) is reported as 40% and the “scratching behavior compared to vehicle” value ([1]; 20 μg CQ + 50 μM α,β-Me-ATP, 2, 10, or 50 mg/kg i.p. 30 min before, FIG. 2) is reported as “decreased scratching behavior”. For the same compound, the “number of scratches in 15 minutes (mean ± s.e.m.)” value ([1]; 20 μg CQ + 100 μM α,β-Me-ATP, 10 mg/kg i.p., vehicle 67±6.3, p=0.0074, FIG. 3) was 44.8±3.8 scratches, the “decrease of the potentiation of CQ-induced itch by higher concentrations of ATP” value ([1]; 20 μg CQ + 100 μM α,β-Me-ATP, 10 mg/kg i.p., vs vehicle) was 33% and the “decrease of itch induced by high dose CQ” value ([1]; 200 μg CQ, 10 mg/kg i.p., vs vehicle) was 21%. The “number of scratches in 30 minutes (mean ± s.e.m.)” value ([1]; high dose CQ 200 μg, 10 mg/kg i.p., vehicle 280±16.1, p=0.011, FIG. 4) was 221.8±12.9 scratches, the “time course of spontaneous scratches in 10-min intervals” value ([2]; 2, 10, 50 mg/kg i.p., FIG. 6) was “significant effect on spontaneous scratches at 20 min, 40 min, 50 min, and 60 min” and the “spontaneous scratches in 60 min compared to vehicle” value ([2]; 2, 10, or 50 mg/kg i.p., statistically significant for all doses (p<0.001), FIG. 5) was “decreased spontaneous scratches”. For the same compound, the “time course of spontaneous scratches in 10-min intervals” value ([3]; 2, 10, 50 mg/kg i.p., FIG. 8) was “significant effect on spontaneous scratches at 10 min, 20 min, 30 min, 40 min, 50 min, and 60 min time points” and the “spontaneous scratches in 60 min compared to vehicle” value ([3]; 2, 10, or 50 mg/kg i.p., statistically significant for all three doses, FIG. 7) was “dose-dependently decreased spontaneous scratches”.
With `Nc1ncnc2c1ncn2C1OC(COP(=O)(O)CP(=O)(O)OP(=O)(O)O)C(O)C1O` (stereo not drawn) [α,β-Me-ATP, α,β-methylene-adenosine 5′-triphosphate, reference compound] the “number of scratches (mean ± s.e.m.)” value ([1]; co-injected i.d. low dose CQ (20 μg) + 10 μM α,β-Me-ATP, p=0.0013 vs CQ) was 28.2±2.2 scratches, the “scratching behavior compared to CQ only or CQ+10 μM α,β-Me-ATP” value ([1]; co-injected i.d. low dose CQ (20 μg) + 50 μM α,β-Me-ATP, p<0.001 vs CQ, FIG. 1) was “further increased scratching behaviors” and the “number of scratches (mean ± s.e.m.)” value ([1]; mice injected i.d. solely with 10 μM α,β-Me-ATP) was 2.4±0.9 scratches. For the same compound, the “number of scratches (mean ± s.e.m.)” value ([1]; mice injected i.d. solely with 50 μM α,β-Me-ATP) was 5.6±1.8 scratches.
